The target of one assay is T1, KDM4E (Homo sapiens, UniProt B2RXH2).
T1 construct: made in house; host or cells: Escherichia coli
T1 sequence (B2RXH2 1-506): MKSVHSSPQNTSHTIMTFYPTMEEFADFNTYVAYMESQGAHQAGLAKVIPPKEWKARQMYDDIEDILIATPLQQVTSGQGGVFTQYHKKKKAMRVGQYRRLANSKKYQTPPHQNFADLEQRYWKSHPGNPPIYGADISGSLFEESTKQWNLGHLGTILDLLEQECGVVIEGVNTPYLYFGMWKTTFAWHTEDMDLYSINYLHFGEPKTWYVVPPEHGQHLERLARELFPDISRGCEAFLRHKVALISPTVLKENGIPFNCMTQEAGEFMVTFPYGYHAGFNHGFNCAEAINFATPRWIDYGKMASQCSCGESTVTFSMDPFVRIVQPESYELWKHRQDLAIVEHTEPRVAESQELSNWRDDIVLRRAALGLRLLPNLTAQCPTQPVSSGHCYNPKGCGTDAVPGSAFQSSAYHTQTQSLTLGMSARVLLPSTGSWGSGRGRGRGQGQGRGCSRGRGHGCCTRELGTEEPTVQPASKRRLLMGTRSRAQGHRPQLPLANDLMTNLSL
In words: SPE-MS KDM4E inhibition assay (demethylation of H3 1–15 K9me3). It counts as biochemical. To be noted: Table 2, 10.0 μM H3 1–15 K9me3, n = 2, mean ± SD. The method, then:
(§1) H3_1-15K9me3, histone 3 (H3), residues 1–15 with K9 of H3-bearing three methyl groups at the N^ε-position, K4 of H3 substituted by an alanine residue, and K14 of H3 by an isoleucine residue,[73] for KDM4E; and RPL27A, residues 31–49, for RIOX2 (Mina53).[44]
(§2) Cosubstrate/cofactor stock solutions [L-ascorbic acid/LAA: 50 mM in MQ-grade water; 2-oxoglutarate/2OG: 10 mM in MQ-grade water; ammonium iron(II) sulfate hexahydrate/FAS/(NH4)2Fe(SO4)2·6H2O: 400 mM in 20 mM HCl diluted to 1 mM in MQ-grade water] were freshly prepared from commercial solids (Sigma-Aldrich) on the day the assays were performed. The JMJD5,[42] PHD2,[70] FIH,[70] KDM4E,[72],[73] RIOX2,[44] and AspH[45] […] For JMJD5, PHD2, FIH, RIOX2, and AspH, substrate hydroxylation was monitored (+16 Da mass shift), while for the KDM4E substrate, demethylation was monitored (−14 Da mass shift) by SPE-MS.

The target of a further assay is T2, PHD2 (Homo sapiens, UniProt Q9GZT9).
T2 construct: His6-PHD2_181–426; made in house; host or cells: Escherichia coli
In words: SPE-MS PHD2 inhibition assay (HIF-1α CODD hydroxylation). It counts as biochemical. To be noted: Table 2; PHD2 181–426 […], 5.0 μM HIF-1α CODD; n = 2, mean ± SD. The method, then: as §1, §2

Another assay deals with T3, FIH (Homo sapiens, UniProt Q9NWT6).
T3 construct: made in house; host or cells: Escherichia coli
In words: SPE-MS FIH inhibition assay (HIF-1α CAD hydroxylation). It counts as biochemical. The conditions noted are these: Table 2; His6-FIH 0.15 μM, 5.0 μM HIF-1α CAD; n = 2, mean ± SD.

A further assay has as its target T4, AspH (Homo sapiens, UniProt Q12797).
T4 construct: N-terminally His6-tagged AspH315–758; made in house; host or cells: Escherichia coli
T4 sequence (Q12797 315-758): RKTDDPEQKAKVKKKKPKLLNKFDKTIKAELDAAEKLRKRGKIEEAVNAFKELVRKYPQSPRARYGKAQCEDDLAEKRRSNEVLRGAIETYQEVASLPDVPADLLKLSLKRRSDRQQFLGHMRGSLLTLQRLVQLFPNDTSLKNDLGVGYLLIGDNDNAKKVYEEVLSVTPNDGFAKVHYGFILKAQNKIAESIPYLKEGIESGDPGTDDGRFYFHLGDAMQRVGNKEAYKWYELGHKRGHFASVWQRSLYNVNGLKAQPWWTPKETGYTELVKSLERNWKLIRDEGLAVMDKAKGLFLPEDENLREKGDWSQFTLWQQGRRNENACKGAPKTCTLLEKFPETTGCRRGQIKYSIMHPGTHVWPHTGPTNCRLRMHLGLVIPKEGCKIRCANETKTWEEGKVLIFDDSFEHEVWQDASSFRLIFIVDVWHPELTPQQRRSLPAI
In words: SPE-MS AspH inhibition assay (hFX-CP101–119 hydroxylation). It counts as biochemical. To be noted: Table 2; His6-AspH315–758 0.05 μM, 1.0 μM hFX-CP101–119; n = 2, mean ± SD. The procedure: as §1, §2

A further assay concerns the target T5, RIOX2 (Homo sapiens, UniProt Q8IUF8).
T5 construct: N-terminally His6-tagged RIOX2_26–465; made in house; host or cells: Escherichia coli
In words: SPE-MS RIOX2 inhibition assay (RPL27A31–49 hydroxylation). The conditions noted are these: Table 2; His6-RIOX2 26–465 […], 5.0 μM RPL27A31–49; n = 2, mean ± SD. It counts as biochemical.

The subject of assay [1] is A549 cells. In words: Cell-cycle analysis (propidium iodide, FACS). It counts as cell-based. To be noted: 1.0 μM, 24 h. The procedure: (§3) (a) U2OS bone osteosarcoma, (b) A549 lung adenocarcinoma, and (c) PC3 prostate adenocarcinoma cells were treated with the indicated doses of 19i and 19j (1.0, 5.0, 10, 50, and 100 μM) for 72 h and then tested for viability using the 3-(4,5-dimethylthiazol-2-yl)-5-(3-carboxymethoxyphenyl)-2-(4-sulfophenyl)-2H-tetrazolium (MTS) assay. A549 cells were treated with 19i or 19j (1.0 μM) for 24 h, then stained with (d) propidium iodide and analyzed by FACS or (e) DAPI staining for nuclei (left) and anti-53BP1 (for 53BP1 bodies, right). Cells were counted for 53BP1 bodies (f) and micronuclei (g). Data represent mean ± SEM from three (a–d) or four (f–g) independent replicates. For 53BP1 bodies, a minimum of 300 cells were counted per sample. For micronuclei, a minimum of 500 cells were counted per sample. Statistical analyses used one-way ANOVA with Tukey’s post hoc test [with p-value ≤ 0.01 (**)].
(§4) Because JMJD5 RNA interference has been associated with disturbances in the cell cycle,[1],[2],[81],[82] we measured phase distribution by flow cytometry in A549 cells (Figure 6d). Treatment with 19i or 19j for 24 h caused a reduction in G1-phase cells, with a corresponding increase in S- and G2/M-phase cells. […] We have recently reported that JMJD5 loss of function induces replication stress,[14] which is defined as a perturbation that slows or stalls DNA replication.[83] Unresolved replication stress can be measured by an increase in G1-phase 53BP1 “bodies” and micronuclei (Figure 6e), which are extranuclear DNA bodies that result from DNA cleavage and genome instability following replication stress.
Cell-cycle analyses were performed using A549 cells fixed in ice-cold 70%v/v ethanol. Cells were incubated with 100 μg/mL RNase A (Thermo Fisher Scientific), stained with 20 μg/mL propidium iodide, and then analyzed using Beckman Coulter CytoFLEX S. Representative FACS profiles were generated using Beckman CytExpert software.

Assay [2] deals with U2OS bone osteosarcoma cells. In words: MTS cell viability assay, U2OS. It counts as cell-based. The conditions noted are these: for CC50: Homo sapiens.
From the text: (§5) A biochemical readout of JMJD5 arginine residue hydroxylase activity in cells is not available; we thus focused our studies on biological readouts previously linked to JMJD5 function in order to investigate cellular responses resulting from JMJD5 inhibitor treatment. JMJD5 loss of function by RNA interference is reported to affect tumor cell proliferation and viability;[16],[18],[20],[21] we therefore studied the effects of 19i and 19j on the growth of three different tumor cell lines.
as §3, with “(**)]. […]” for “(**)].”
Cell proliferation/viability was measured using MTS (CellTiter 96 Aqueous One 667 Solution Cell Proliferation Assay, Promega) and CyQUANT (Thermo Fisher) assays. […] Plates were incubated for 1 h at 37 °C under 5% CO2, protected from light, and then the absorbance was measured at 490 nm using an EnSpire Multimode plate reader (PerkinElmer). […] The cells were incubated for 1 h at 37 °C under 5% CO2, protected from light; fluorescence was then measured with excitation at ∼485 nm and emission detection at ∼530 nm using an EnSpire Multimode plate reader.

Assay [3] has as its system U2OS bone osteosarcoma cells. In words: CyQuant viability assay (DNA content), U2OS. It counts as cell-based. The conditions noted are these: 1.0–100 μM, 72 h. The procedure:
Cell proliferation/viability was measured using MTS (CellTiter 96 Aqueous One 667 Solution Cell Proliferation Assay, Promega) and CyQUANT (Thermo Fisher) assays. CellTiter 96 Aqueous MTS reagent (Promega) and phenazine methosulfate (Sigma-Aldrich) were dissolved in phosphate-buffered saline (PBS) according to the manufacturer’s protocol. The MTS working reagent was made according to the manufacturer’s protocol and added to each well containing the cells. Plates were incubated for 1 h at 37 °C under 5% CO2, protected from light, and then the absorbance was measured at 490 nm using an EnSpire Multimode plate reader (PerkinElmer). For the cyQUANT assay, the reagents were prepared according to the manufacturer’s protocol and added to the cells. The cells were incubated for 1 h at 37 °C under 5% CO2, protected from light; fluorescence was then measured with excitation at ∼485 nm and emission detection at ∼530 nm using an EnSpire Multimode plate reader.
viability of U2OS bone osteosarcoma cells.
derivatives 19i and 19j (1.0, 5.0, 10, 50, 100 μM) for 72 h and then tested for viability using the CyQuant assay,
which measures DNA content. Data represent mean ± SEM from independent experiments.
(1 picture or pasted object on this page, not shown here)

The subject of assay [4] is A549 cells. In words: Replication stress: 53BP1 bodies and micronuclei (immunofluorescence/DAPI). The conditions noted are these: 1.0 μM, 24 h. It counts as cell-based. The method, then: as §3, §4
Cells on coverslips were pre-extracted on ice for 5 min using a buffer containing 20 mM NaCl, 3 mM MgCl2, 300 mM sucrose, 10 mM PIPES, and 0.5%v/v Triton X-100 and fixed using 4%v/v paraformaldehyde (PFA) in PBS for 15 min at ambient temperature. Cells were then permeabilized in 0.1%v/v Triton X-100 in PBS at ambient temperature for 10 min and blocked in 1%w/v bovine serum albumin (BSA) in PBS for 1 h at ambient temperature. Coverslips were incubated with anti-53BP1 antibody (Bio-Techne, NB100-904V) diluted in 1%w/v BSA in PBS at ambient temperature for 1 h in the dark. Coverslips were then washed three times with cold 1%w/v BSA in PBS following incubation for 1 h with secondary antibodies (anti-mouse 555 nm A31570 or anti-rabbit 488 nm A11070, Thermo Fisher). The coverslips were washed three times with cold PBS and incubated for 10 min with 4′,6-diamidino-2-phenylindole (DAPI) (Invitrogen) to stain for nuclei. Prolong Gold Antifade Reagent (Cell Signaling Technology) was used to mount the coverslips onto microscope slides. Images were taken using 40× objective on a Leica DM6000 fluorescent microscope and processed with ImageJ.

The subject of assay [5] is PC3 prostate adenocarcinoma cells. In words: MTS cell viability assay, PC3. It counts as cell-based. The conditions noted are these: 1.0–100 μM, 72 h.
From the text: as §5
as §3, with “Data represent mean ± SEM from three (a–d) or four (f–g) independent replicates.” left out, “Statistical analyses used one-way ANOVA with Tukey’s post hoc test [with p-value ≤ 0.01 (**)].” left out
(§6) Cell proliferation/viability was measured using MTS (CellTiter 96 Aqueous One 667 Solution Cell Proliferation Assay, Promega) and CyQUANT (Thermo Fisher) assays. […]

The test system of assay [6] is A549 lung adenocarcinoma cells. In words: MTS cell viability assay, A549. To be noted: Homo sapiens, 72 h, read-out: half-maximum cytotoxicity concentration (CC50). It counts as cell-based.
From the text: as §5
as §3, with “Data represent mean ± SEM from three (a–d) or four (f–g) independent replicates.” left out, “Statistical analyses used one-way ANOVA with Tukey’s post hoc test [with p-value ≤ 0.01 (**)].” left out
as §6
Background: Tetrazolium assays rely on reduction of a dye to a coloured formazan, in cell work by metabolically active cells.

Where two headings read alike, the source gives them in different places.

One may read the IC50 as the concentration that inhibits the measured activity by half.

T5 sequence (Q8IUF8 26-465): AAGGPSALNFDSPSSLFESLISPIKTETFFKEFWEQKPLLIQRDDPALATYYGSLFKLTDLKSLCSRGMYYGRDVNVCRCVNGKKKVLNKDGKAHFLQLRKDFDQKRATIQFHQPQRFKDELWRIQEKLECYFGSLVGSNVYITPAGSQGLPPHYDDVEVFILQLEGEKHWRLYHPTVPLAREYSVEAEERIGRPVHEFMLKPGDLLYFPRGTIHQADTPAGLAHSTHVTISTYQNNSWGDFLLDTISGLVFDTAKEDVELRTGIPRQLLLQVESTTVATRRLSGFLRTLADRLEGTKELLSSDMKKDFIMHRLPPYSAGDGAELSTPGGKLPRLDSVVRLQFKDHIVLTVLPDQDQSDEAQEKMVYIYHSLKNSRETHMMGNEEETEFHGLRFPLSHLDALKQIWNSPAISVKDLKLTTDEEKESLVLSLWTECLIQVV
T3 sequence (Q9NWT6 whole entry): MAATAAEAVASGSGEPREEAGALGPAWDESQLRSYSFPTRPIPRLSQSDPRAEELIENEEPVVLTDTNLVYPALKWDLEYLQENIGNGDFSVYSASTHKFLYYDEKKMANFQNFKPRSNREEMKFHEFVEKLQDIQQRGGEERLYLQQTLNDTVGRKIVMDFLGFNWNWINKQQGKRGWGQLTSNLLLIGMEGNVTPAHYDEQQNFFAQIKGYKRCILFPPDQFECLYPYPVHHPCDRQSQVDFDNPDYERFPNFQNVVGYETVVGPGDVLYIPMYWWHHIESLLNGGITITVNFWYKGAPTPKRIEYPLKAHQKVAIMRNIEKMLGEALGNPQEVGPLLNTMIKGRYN
T2 sequence (Q9GZT9 181-426): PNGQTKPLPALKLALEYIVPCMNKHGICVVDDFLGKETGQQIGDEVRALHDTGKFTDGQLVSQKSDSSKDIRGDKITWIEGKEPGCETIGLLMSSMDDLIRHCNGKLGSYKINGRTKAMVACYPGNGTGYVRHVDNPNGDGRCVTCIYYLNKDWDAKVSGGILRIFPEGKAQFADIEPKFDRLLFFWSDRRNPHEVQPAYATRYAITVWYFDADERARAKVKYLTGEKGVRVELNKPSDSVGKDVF
Method for FIH: HIF-α CAD, residues 788–822, for FIH;[70]
Cosubstrate/cofactor stock solutions [L-ascorbic acid/LAA: 50 mM in MQ-grade water; 2-oxoglutarate/2OG: 10 mM in MQ-grade water; ammonium iron(II) sulfate hexahydrate/FAS/(NH4)2Fe(SO4)2·6H2O: 400 mM in 20 mM HCl diluted to 1 mM in MQ-grade water] were freshly prepared from commercial solids (Sigma-Aldrich) on the day the assays were performed. […] FIH,[70] […] SPE-MS inhibition assays were performed as described in the cited literature, using isolated recombinant human enzymes (His6-thioredoxin-JMJD5,[42] His6-PHD2_181–426,[70] His6-FIH,[70] His6-KDM4E,[72],[73] His6-RIOX2_26–465,[87],[88] and His6-AspH315–758[48],[80]) and synthetic peptide substrates (RPS6_128–148 for JMJD5;[42] HIF-α CODD558–574 for PHD2;[70] HIF-α CAD788–822 for FIH;[70] H3_1–15K9me3 for KDM4E;[73] RPL27A31–49 for RIOX2;[44],[71] and hFX-CP101–119 for AspH;[45],[48] see above). For JMJD5, PHD2, FIH, RIOX2, and AspH, substrate hydroxylation was monitored (+16 Da mass shift), while for the KDM4E substrate, demethylation was monitored (−14 Da mass shift) by SPE-MS.
Method for RIOX2: Cosubstrate/cofactor stock solutions [L-ascorbic acid/LAA: 50 mM in MQ-grade water; 2-oxoglutarate/2OG: 10 mM in MQ-grade water; ammonium iron(II) sulfate hexahydrate/FAS/(NH4)2Fe(SO4)2·6H2O: 400 mM in 20 mM HCl diluted to 1 mM in MQ-grade water] were freshly prepared from commercial solids (Sigma-Aldrich) on the day the assays were performed. […] For JMJD5, PHD2, FIH, RIOX2, and AspH, substrate hydroxylation was monitored (+16 Da mass shift), while for the KDM4E substrate, demethylation was monitored (−14 Da mass shift) by SPE-MS.

For the compound `O=C(O)c1cc(C(=O)O)c(NCc2ccccc2C2CC2)cn1` [Compound 20j, 5-((2-cyclopropylbenzyl)amino)pyridine-2,4-dicarboxylic acid], the IC50 is above 50 µM against KDM4E; above 50 µM against PHD2; above 50 µM on FIH; 8.9 ± 5 µM against AspH; above 50 µM at RIOX2.
On to `COC(=O)c1cc(C(=O)OC)c(NCc2ccccc2OC)cn1` [Compound 19i], for which, in the assay with A549 cells [1], the G1-phase cells entry is “reduction”; the “S- and G2/M-phase cells” value is recorded as “increase”; the Sub-G1-phase cell numbers result is “increased”. In addition, the “effect on cell growth (in words)” value in [2] (1.0–100 μM, 72 h, MTS) is on record as “did not significantly affect”. For the same compound, in assay [2] (supplementary CSV, read-out: CC50 U2OS cells), the CC50 was above 100 µM. Moreover, in assay [3], the “viability (CyQuant, in words)” value is recorded as “reduced viability”. In the assay with A549 cells [4], the 53BP1 bodies entry was “significantly induced” and the micronuclei result is “significantly induced”. In addition, in assay [5], the “effect on cell growth (in words)” value is “did not significantly affect”. The CC50 in [6] was 10.7 µM.
Regarding `COC(=O)c1cc(C(=O)OC)c(NCc2ccccc2C2CC2)cn1` [Compound 19j], in the assay with A549 cells [1], the G1-phase cells entry is “reduction”; the “S- and G2/M-phase cells” value is reported as “increase”; the Sub-G1-phase cell numbers result was “increased”. The CC50 in assay [2] (72 h, MTS, read-out: half-maximum cytotoxicity concentration (CC50)) was 10 µM. In addition, the “viability (CyQuant, in words)” value in assay [3] is given as “reduced viability”. In the assay with A549 cells [4], the 53BP1 bodies entry was “significantly induced” and the micronuclei result is “significantly induced”. Further, the CC50 in assay [6] turned out to be 2.1 µM.

(Values after publication PMC10424186 (Journal of Medicinal Chemistry, 2023).)
